How the values were obtained:
[1] = Singlet oxygen quantum yield, indirect method with chemical quencher (DPBF or ADMA); format: physicochemical
From the text: Photogeneration quantum yields of singlet oxygen (ΦΔ) were obtained by an indirect method, using either diphenylisobenzofuran (DBPF) or anthracene-9,10-bis-methylmalonate (ADMA) as chemical quenchers in either N,N-dimethylformamide or aqueous media, respectively. Typically, a solution of the phthalocyanine and the quencher was irradiated with a red LED lamp (670 nm) at 5 mW/cm^2. The initial DPBF or ADMA concentrations were kept the same for both the reference and the test samples. The degradation of the DPBF band at 414 nm or ADMA at 401 nm was monitored in a Varian Cary® 50 UV-Vis spectrophotometer, every five seconds in the case of DPBF (up to 30 seconds) and every minute in the case of ADMA (up to five minutes). ZnPc (ΦΔ=0.67) and AlPcSmix (ΦΔ=0.42) were used as references in N,N-dimethylformamide or aqueous media, respectively.
The relative method shown by Eq. (1) was employed for calculations of the ΦΔ:
[formula] where ΦΔ and ΦΔref are the ^1O2 generation quantum yields for the sample and reference, respectively, m and mref are the DPBF or ADMA photobleaching rates in the presence of the phthalocyanine of the invention and the reference, respectively, and I and Iref are the rates of light absorption by the phthalocyanine derivative and reference, respectively. Concentrations of the test compound and reference were chosen such that their respective absorptions at the irradiation wavelength were the same.

[2] = Kinetic (aqueous) solubility in pH 7.4 DPBS, UV quantification; settings: for Solubility* (kinetic): pH 7.4 DPBS, 4 hours, room temperature (25° C.), from 10 mM DMSO stock
BxPC3 cells = test: Cell killing of free dye PIT, CellTox Green Cytotoxicity Assay; format: cell-based; settings: BxPC3, 0.00137-1 μg/mL, 690 nm laser 64 J/cm^2, 24 hours after light
Description: The PIT killing activity of free dyes were evaluated using the molecules synthesized as Example 12 and Example 13. BxPC3 cells (#CRL-1687, ATCC, Manassas VA) were plated, 5,000 cells per well, in RPMI-1640 media supplemented with 10% FBS and 1% Penicillin/Streptomycin (complete culture media) in a deep-well 96-well plate. Following overnight incubation at 37° C., the culture media were removed and the cells were incubated in 100 μL complete media with 1, 0.333, 0.111, 0.03704, 0.01235, 0.00412, 0.00137, or 0 μg/mL Example 12, Example 13, or IRDye 700DX carboxylate (control) for one hour at 4° C. […]
The effect of different treatment regimens on cell death was measured using the CellTox™ Green Cytotoxicity Assay (Cat No: G8742, Promega, Madison, WI). […] The CellTox™ Green fluorescence signal was measured at 24 hours after light treatment using a fluorescence plate reader. The cells were then lysed with diluted lysis solution (Cat No: G1821, Promega, Madison, WI), incubated at 37° C. for 30 minutes, and the CellTox™ Green fluorescence signal was measured again post-lysis. The percentages of dead cells were calculated by taking the ratio between background (1× CellTox™ Green in complete culture media without cells)-subtracted CellTox™ Green signal per well prior to and post lysis and multiplying the ratio by 100.

[3] = reference in N,N-dimethylformamide; cited from earlier work
[4] = quencher ADMA, aqueous media, 670 nm LED 5 mW/cm^2, reference AlPcSmix

Compound | ΦΔ (singlet oxygen quantum yield) [1, 4] | Solubility* (kinetic) [2] | also measured
C[Si](C)(CCC[N+](CCCS(=O)(=O)O)(CCCS(=O)(=O)O)CCCS(=O)(=O)O)O[Si-2]123(O[Si](C)(C)CCC[N+](CCCS(=O)(=O)O)(CCCS(=O)(=O)O)CCOCCOCCOCCC(=O)O)n4c5c6ccccc6c4N=C4c6ccccc6C(=[N+]41)N=c1c4ccccc4c(n12)=NC1=[N+]3C(=N5)c2ccccc21.[Na+].[Na+].[Na+].[Na+] [Example 19, Sodium 2-((19-((dimethyl(3-(tris(3-sulfonatopropyl)ammonio)propyl)silyl)oxy)-19H-6,11-(azeno)-17,21-(azeno[3]episoindoloazeno)benzo[7,8][1,3,5,10]tetraaza[2]silacycloundecino[4,3-a:11,1-a′]diisoindol-19-yl)oxy)-2-methyl-6,6-bis(3-sulfonatopropyl)-9,12,15-trioxa-6-aza-2-silaoctadecan-6-ium-18-oate] | B (>0.5) |  | solubility kinetic at 4 h ([2]; 25 °C, pH 7.4, aqueous buffer, kinetic from dmso stock): > 100 µg/mL
C[Si](C)(CCCNC(=O)CCCN(CCCS(=O)(=O)O)CCCS(=O)(=O)O)O[Si]1(O[Si](C)(C)CCCNC(=O)COCC(=O)O)n2c3c4ccccc4c2N=C2N=C(N=c4c5ccccc5c(n41)=NC1=NC(=N3)c3ccccc31)c1ccccc12.N (centres unmarked) [Example 15, Ammonium 2-(2-((3-(((19-(((3-(4-(bis(3-sulfonatopropyl)ammonio)butanamido)propyl)dimethylsilyl)oxy)-19H-6,11-(azeno)-17,21-(azeno[1]episoindoloazeno)benzo[7,8][1,3,5,10]tetraaza[2]silacycloundecino[4,3-a:11,1-a′]diisoindol-19-yl)oxy)dimethylsilyl)propyl)amino)-2-oxoethoxy)acetate] |  | B (>1 μg/mL to ≤100 μg/mL) | 
COCCOCCOCC(=O)NCCC[Si](C)(C)O[Si-2]123(O[Si](C)(C)CCCNC(=O)CCCCC(=O)O)n4c5c6ccccc6c4N=C4c6ccccc6C(=[N+]41)N=c1c4ccccc4c(n12)=NC1=[N+]3C(=N5)c2ccccc21 [Example 1, 6-((3-(dimethyl((19-((15-methyl-10-oxo-2,5,8-trioxa-11-aza-15-silahexadecan-15-yl)oxy)-19H-6,11-(azeno)-17,21-(azeno[3]episoindoloazeno)benzo[7,8][1,3,5,10]tetraaza[2]silacycloundecino[4,3-a:11,1-a′]diisoindol-19-yl)oxy)silyl)propyl)amino)-6-oxohexanoic acid] |  |  | ΦΔ (singlet oxygen quantum yield) ([1]; quencher DPBF, N,N-dimethylformamide, 670 nm LED 5 mW/cm^2, reference ZnPc): A (≤0.5)
Ammonium 3-((4-((3-(((19-(((3-(2-(carboxymethoxy)acetamido)propyl)dimethylsilyl)oxy)-19H-6,11-(azeno)-17,21-(azeno[3]episoindoloazeno)benzo[7,8][1,3,5,10]tetraaza[2]silacycloundecino[4,3-a:11,1-a′]diisoindol-19-yl)oxy)dimethylsilyl)propyl)amino)-4-oxobutyl)bis(3-sulfopropyl)ammonio)propane-1-sulfonae [Example 5] | B (>0.5) |  | 
C[Si](C)(CCC[N+](CCCCS(=O)(=O)[O-])(CCCCS(=O)(=O)[O-])CCCCS(=O)(=O)[O-])O[Si@@]1(O[Si](C)(C)CCC[N+](CCCCS(=O)(=O)[O-])(CCCCS(=O)(=O)[O-])CCOCCOCCC(=O)[O-])n2c3c4ccccc4c2/N=C2N=C(/N=c4/c5ccccc5/c(n41)=N/C1=NC(=N\3)/c3ccccc31)c1ccccc1\2.[Na+].[Na+].[Na+].[Na+] [Example 18, Sodium 2-((19-((dimethyl(3-(tris(4-sulfonatobutyl)ammonio)propyl)silyl)oxy)-19H-6,11-(azeno)-17,21-(azeno[3]episoindoloazeno)benzo[7,8][1,3,5,10]tetraaza[2]silacycloundecino[4,3-a:11,1-a′]diisoindol-19-yl)oxy)-2-methyl-6,6-bis(4-sulfonatobutyl)-9,12-dioxa-6-aza-2-silapentadecan-6-ium-15-oate] | B (>0.5) | C (>100 μg/mL) | 
C[Si](C)(CCCNC(=O)COCC(=O)O)O[Si]1(O[Si](C)(C)CCCNC(=O)NCCS(=O)(=O)O)n2c3c4ccccc4c2N=C2N=C(N=c4c5ccccc5c(n41)=NC1=NC(=N3)c3ccccc31)c1ccccc12.N (centres unmarked) [Example 7, Ammonium 2-(2-((3-(((19-((dimethyl(3-(3-(2-sulfonatoethyl)ureido)propyl)silyl)oxy)-19H-6,11-(azeno)-17,21-(azeno[1]episoindoloazeno)benzo[7,8][1,3,5,10]tetraaza[2]silacycloundecino[4,3-a:11,1-a′]diisoindol-19-yl)oxy)dimethylsilyl)propyl)amino)-2-oxoethoxy)acetate] |  | A (≤1 μg/mL) | 
3-((6-((λ^5-azaneyl)oxy)-6-oxohexyl)(3-(((λ5-azaneyl)oxy)sulfonyl)propyl)(3-(((19-(((3-(bis(3-(((λ5-azaneyl)oxy)sulfonyl)propyl)(3-sulfonatopropyl)ammonio)propyl)dimethylsilyl)oxy)-19H-6,11-(azeno)-17,21-(azeno[3]episoindoloazeno)benzo[7,8][1,3,5,10]tetraaza[2]silacycloundecino[4,3-a:11,1-a′]diisoindol-19-yl)oxy)dimethylsilyl)propyl)ammonio)propane-1-sulfonate [Example 12] | B (>0.5) | C (>100 μg/mL) | cell death after illumination (free dye) (BxPC3 cells): dose-dependent cytotoxicity
[Zn+2].c1ccc2c(c1)-c1nc-2nc2[n-]c(nc3nc([n-]c4nc(n1)-c1ccccc1-4)-c1ccccc1-3)c1ccccc21 [ZnPc] |  |  | ΦΔ of reference [3]: 0.67
C[Si](C)(CCCNC(=O)COCC(=O)O)O[Si]1(O[Si](C)(C)CCCNC(=O)NCC(S(=O)(=O)O)S(=O)(=O)O)n2c3c4ccccc4c2N=C2N=C(N=c4c5ccccc5c(n41)=NC1=NC(=N3)c3ccccc31)c1ccccc12.N (centres unmarked) [Example 8, Ammonium 2-(2-((3-(((19-(((3-(3-(2,2-disulfonatoethyl)ureido)propyl)dimethylsilyl)oxy)-19H-6,11-(azeno)-17,21-(azeno[1]episoindoloazeno)benzo[7,8][1,3,5,10]tetraaza[2]silacycloundecino[4,3-a:11,1-a′]diisoindol-19-yl)oxy)dimethylsilyl)propyl)amino)-2-oxoethoxy)acetate] |  | A (≤1 μg/mL) | 
4-((6-((λ5-azaneyl)oxy)-6-oxohexyl)(4-(((λ5-azaneyl)oxy)sulfonyl)butyl)(3-(((19-(((3-(bis(4-(((λ5-azaneyl)oxy)sulfonyl)butyl)(4-sulfonatobutyl)ammonio)propyl)dimethylsilyl)oxy)-19H-6,11-(azeno)-17,21-(azeno[3]episoindoloazeno)benzo[7,8][1,3,5,10]tetraaza[2]silacycloundecino[4,3-a:11,1-a′]diisoindol-19-yl)oxy)dimethylsilyl)propyl)ammonio)butane-1-sulfonate [Example 13] | B (>0.5) | C (>100 μg/mL) | cell death after illumination (free dye) (BxPC3 cells): dose-dependent cytotoxicity
C[Si](C)(CCC[N+](CCCCS(=O)(=O)O)(CCCCS(=O)(=O)O)CCCCS(=O)(=O)O)O[Si-2]123(O[Si](C)(C)CCC[N+](CCCCS(=O)(=O)O)(CCCCS(=O)(=O)O)CCOCCOCCOCCC(=O)O)n4c5c6ccccc6c4N=C4c6ccccc6C(=[N+]41)N=c1c4ccccc4c(n12)=NC1=[N+]3C(=N5)c2ccccc21.[Na+].[Na+].[Na+].[Na+] [Example 17, Sodium 2-((19-((dimethyl(3-(tris(4-sulfonatobutyl)ammonio)propyl)silyl)oxy)-19H-6,11-(azeno)-17,21-(azeno[3]episoindoloazeno)benzo[7,8][1,3,5,10]tetraaza[2]silacycloundecino[4,3-a:11,1-a′]diisoindol-19-yl)oxy)-2-methyl-6,6-bis(4-sulfonatobutyl)-9,12,15-trioxa-6-aza-2-silaoctadecan-6-ium-18-oate] | B (>0.5) |  | 

Source: US12448518B2, “Phthalocyanine dye compounds, conjugates and methods of use thereof” (Rakuten Medical, Inc., priority 2020, dated 2025)
